PubChem BioAssay AID248 (DTP/NCI, 2004)
Inconclusive results and toxic doses are left out.

Test system: L1210 leukemia ip in BDF1 mice, survival T/C
Test: NCI In Vivo Anticancer Drug Screen. Data for tumor model L1210 Leukemia (intraperitoneal) in B6D2F1 (BDF1) mice
Conditions: endpoint: mean survival time, higher = longer survival
How it was run: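 Ratio derived from survival: compound-dosed mice over vehicle-dosed mice, all bearing a transplantable tumor.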

[1] = dose: 100.0 mg/kg/injection, schedule: Q04DX003 (ip), vehicle: saline with Tween-80
[2] = dose: 100.0 mg/kg/injection, schedule: Q04DX002 (ip), vehicle: Klucel (hydroxypropylcellulose) (HPC)
[3] = dose: 200.0 mg/kg/injection, schedule: Q04DX002 (ip), vehicle: Klucel (hydroxypropylcellulose) (HPC)
[4] = dose: 400.0 mg/kg/injection, schedule: Q04DX002 (ip), vehicle: Klucel (hydroxypropylcellulose) (HPC)
[5] = dose: 100.0 mg/kg/injection, schedule: Q01DX009 (ip), vehicle: Klucel (hydroxypropylcellulose) (HPC)
[6] = dose: 200.0 mg/kg/injection, schedule: Q01DX009 (ip), vehicle: Klucel (hydroxypropylcellulose) (HPC)
[7] = dose: 400.0 mg/kg/injection, schedule: Q01DX009 (ip), vehicle: Klucel (hydroxypropylcellulose) (HPC)
[8] = dose: 25.0 mg/kg/injection, schedule: Q01DX009 (ip), vehicle: saline
[9] = dose: 50.0 mg/kg/injection, schedule: Q01DX009 (ip), vehicle: saline
[10] = dose: 100.0 mg/kg/injection, schedule: Q04DX003 (ip), vehicle: saline
[11] = dose: 100.0 mg/kg/injection, schedule: Q01DX001 (ip), vehicle: saline
[12] = dose: 200.0 mg/kg/injection, schedule: Q01DX001 (ip), vehicle: saline
[13] = dose: 10.0 mg/kg/injection, schedule: Q01DX001 (ip), vehicle: carboxymethylcellulose (CMC)
[14] = dose: 20.0 mg/kg/injection, schedule: Q01DX001 (ip), vehicle: carboxymethylcellulose (CMC)

In the case of CCN(CC)CCCC(C)Nc1ccnc(C)c1 (configuration not stated), the T/C (dose: 10.0 mg/kg/injection, schedule: Q04DX003 (ip), vehicle: other) is reported as 100 % of control, the T/C (dose: 20.0 mg/kg/injection, schedule: Q04DX003 (ip), vehicle: other) is reported as 95 % of control and the T/C (dose: 40.0 mg/kg/injection, schedule: Q04DX003 (ip), vehicle: other) is reported as 94 % of control.
With c1ccc(-n2nc3c(c2-c2ccc(OCCN4CCCC4)cc2)CCCc2ccccc2-3)cc1 the T/C [1] was 88 % of control.
For O=S(=O)(NC(CCl)=NC1CCCCC1)c1ccccc1, the T/C [2] was 89 % of control, the T/C [3] was 100 % of control and the T/C [4] was 104 % of control.
For N#Cc1ccncc1, the T/C [5] was 91 % of control, the T/C [6] was 93 % of control and the T/C [7] was 96 % of control.
In the case of CC(CN1CCCC1)C(O)(Cc1ccccc1)c1ccccc1 (configuration not stated), the T/C [8] is reported as 95 % of control, the T/C [9] is reported as 95 % of control and the T/C [10] is reported as 92 % of control.
For O=C1NC(=O)C2(CCCc3ccccc32)N1 (configuration not stated), the T/C (dose: 25.0 mg/kg/injection, schedule: Q04DX002 (ip), vehicle: Klucel (hydroxypropylcellulose) (HPC)) was 110 % of control, the T/C (dose: 50.0 mg/kg/injection, schedule: Q04DX002 (ip), vehicle: Klucel (hydroxypropylcellulose) (HPC)) was 104 % of control and the T/C [2] was 100 % of control.
For COc1ccc(C(C#N)C(O)(c2ccccc2)c2ccccc2)cc1 (configuration not stated), the T/C (dose: 50.0 mg/kg/injection, schedule: Q01DX001 (ip), vehicle: saline) was 104 % of control, the T/C [11] was 107 % of control and the T/C [12] was 98 % of control. The T/C (dose: 400.0 mg/kg/injection, schedule: Q01DX001 (ip), vehicle: saline) was 93 % of control.
In the case of Cc1ccc(Cl)c2ccccc12, the T/C (dose: 12.5 mg/kg/injection, schedule: Q01DX009 (ip), vehicle: saline with Tween-80) is reported as 106 % of control, the T/C (dose: 25.0 mg/kg/injection, schedule: Q01DX009 (ip), vehicle: saline with Tween-80) is reported as 104 % of control and the T/C (dose: 50.0 mg/kg/injection, schedule: Q01DX009 (ip), vehicle: saline with Tween-80) is reported as 106 % of control. For the same compound, the T/C (dose: 100.0 mg/kg/injection, schedule: Q01DX009 (ip), vehicle: saline with Tween-80) was 93 % of control, the T/C (dose: 200.0 mg/kg/injection, schedule: Q01DX009 (ip), vehicle: saline with Tween-80) was 90 % of control and the T/C (dose: 400.0 mg/kg/injection, schedule: Q01DX009 (ip), vehicle: saline with Tween-80) was 101 % of control.
ClCCN(CCCl)c1ccc(CNCCCNCc2ccc(N(CCCl)CCCl)cc2)cc1 was tested, and the T/C (dose: 5.0 mg/kg/injection, schedule: Q01DX001 (ip), vehicle: carboxymethylcellulose (CMC)) was 105 % of control, the T/C [13] was 110 % of control and the T/C [14] was 103 % of control.
In the case of COc1cc(OC)c(N=Nc2sc(N)nc2C)cc1Cl, the T/C (dose: 75.0 mg/kg/injection, schedule: Q01DX001 (ip), vehicle: saline) is reported as 92 % of control, the T/C (dose: 150.0 mg/kg/injection, schedule: Q01DX001 (ip), vehicle: saline) is reported as 97 % of control and the T/C (dose: 300.0 mg/kg/injection, schedule: Q01DX001 (ip), vehicle: saline) is reported as 94 % of control.
O=c1[nH]cc(F)c(=O)n1C1OC(CO)C(O)C1O (configuration not stated) was tested, and the T/C (dose: 0.78 mg/kg/injection, schedule: Q01DX009 (ip), vehicle: saline) was 124 % of control, the T/C (dose: 1.5 mg/kg/injection, schedule: Q01DX009 (ip), vehicle: saline) was 159 % of control and the T/C (dose: 1.56 mg/kg/injection, schedule: Q01DX009 (ip), vehicle: saline) was 152 % of control. For the same compound, the T/C (dose: 3.12 mg/kg/injection, schedule: Q01DX005 (ip), vehicle: saline) was 167 % of control, the T/C (dose: 3.12 mg/kg/injection, schedule: Q01DX009 (ip), vehicle: saline) was 173 % of control and the T/C (dose: 6.0 mg/kg/injection, schedule: Q01DX009 (ip), vehicle: saline) was 97 % of control. For the same compound, the T/C (dose: 6.25 mg/kg/injection, schedule: Q01DX005 (ip), vehicle: saline) was 171 % of control, the T/C (dose: 6.25 mg/kg/injection, schedule: Q01DX009 (ip), vehicle: saline) was 204 % of control and the T/C (dose: 12.5 mg/kg/injection, schedule: Q01DX009 (ip), vehicle: saline) was 231 % of control. For the same compound, the T/C (dose: 18.8 mg/kg/injection, schedule: Q04DX003 (ip), vehicle: saline) was 107 % of control, the T/C [8] was 118 % of control and the T/C (dose: 25.0 mg/kg/injection, schedule: Q04DX003 (ip), vehicle: saline) was 105 % of control. The T/C (dose: 37.5 mg/kg/injection, schedule: Q04DX003 (ip), vehicle: saline) was 110 % of control, the T/C (dose: 50.0 mg/kg/injection, schedule: Q04DX003 (ip), vehicle: saline) was 110 % of control and the T/C (dose: 178.0 mg/kg/injection, schedule: Q01DX009 (ip), vehicle: saline) was 165 % of control. The T/C (dose: 267.0 mg/kg/injection, schedule: Q01DX009 (ip), vehicle: saline) was 163 % of control, the T/C (dose: 400.0 mg/kg/injection, schedule: Q01DX009 (ip), vehicle: saline) was 150 % of control and the T/C (dose: 600.0 mg/kg/injection, schedule: Q01DX009 (ip), vehicle: saline) was 171 % of control.
For COc1ccc(C(c2ccc(OC)cc2)C(c2ccc(OC)cc2)c2ccc(OC)cc2)cc1, the T/C [2] was 98 % of control, the T/C [3] was 106 % of control and the T/C [4] was 103 % of control.
In the case of Nc1[nH][nH]c(=O)c1N, the T/C (dose: 50.0 mg/kg/injection, schedule: Q01DX009 (ip), vehicle: Klucel (hydroxypropylcellulose) (HPC)) is reported as 117 % of control, the T/C [5] is reported as 100 % of control and the T/C [6] is reported as 100 % of control.
With COc1cc(/C=C(/C)[N+](=O)[O-])c([N+](=O)[O-])cc1OC the T/C [11] was 98 % of control and the T/C [12] was 90 % of control.
With COc1ccc(NC(=O)Nc2cccc(C(F)(F)F)c2)c(OC)c1 the T/C (dose: 100.0 mg/kg/injection, schedule: Q01DX009 (ip), vehicle: gum acacia) was 102 % of control, the T/C (dose: 200.0 mg/kg/injection, schedule: Q01DX009 (ip), vehicle: gum acacia) was 98 % of control and the T/C (dose: 400.0 mg/kg/injection, schedule: Q01DX009 (ip), vehicle: gum acacia) was 101 % of control.
CCN(CC)C(=O)/C=C/C(=O)N(CC)CC was tested, and the T/C [10] was 103 % of control, the T/C (dose: 200.0 mg/kg/injection, schedule: Q04DX003 (ip), vehicle: saline) was 100 % of control and the T/C (dose: 400.0 mg/kg/injection, schedule: Q04DX003 (ip), vehicle: saline) was 100 % of control.
In the case of C=C(C(=O)OC1CC2CCC(C1)N2C)c1ccccc1 (configuration not stated), the T/C (dose: 1.25 mg/kg/injection, schedule: Q01DX Z (ip), vehicle: saline) is reported as 90 % of control, the T/C (dose: 1.25 mg/kg/injection, schedule: Q04DX003 (ip), vehicle: Klucel (hydroxypropylcellulose) (HPC)) is reported as 113 % of control and the T/C (dose: 2.5 mg/kg/injection, schedule: Q01DX Z (ip), vehicle: saline) is reported as 105 % of control. The T/C (dose: 2.5 mg/kg/injection, schedule: Q04DX003 (ip), vehicle: Klucel (hydroxypropylcellulose) (HPC)) was 101 % of control, the T/C (dose: 5.0 mg/kg/injection, schedule: Q01DX Z (ip), vehicle: saline) was 97 % of control and the T/C (dose: 5.0 mg/kg/injection, schedule: Q04DX003 (ip), vehicle: Klucel (hydroxypropylcellulose) (HPC)) was 107 % of control. For the same compound, the T/C [13] was 111 % of control, the T/C (dose: 10.0 mg/kg/injection, schedule: Q04DX003 (ip), vehicle: Klucel (hydroxypropylcellulose) (HPC)) was 106 % of control and the T/C [14] was 93 % of control.
CCC(O)c1ccc2ccccc2c1 (configuration not stated) was tested, and the T/C (dose: 100.0 mg/kg/injection, schedule: Q01DX001 (ip), vehicle: carboxymethylcellulose (CMC)) was 98 % of control, the T/C (dose: 200.0 mg/kg/injection, schedule: Q01DX001 (ip), vehicle: carboxymethylcellulose (CMC)) was 98 % of control and the T/C (dose: 400.0 mg/kg/injection, schedule: Q01DX001 (ip), vehicle: carboxymethylcellulose (CMC)) was 93 % of control.
For O=C(Nc1ccc(F)cc1)C(Br)C(Br)c1ccccc1 (configuration not stated), the T/C [5] was 88 % of control, the T/C [6] was 102 % of control and the T/C [7] was 91 % of control.
In the case of CCC(CC)(CC)OC(=O)NS(=O)(=O)c1ccc(Cl)cc1, the T/C (dose: 100.0 mg/kg/injection, schedule: Q01DX009 (ip), vehicle: acetone) is reported as 107 % of control, the T/C [1] is reported as 120 % of control and the T/C (dose: 200.0 mg/kg/injection, schedule: Q04DX003 (ip), vehicle: saline with Tween-80) is reported as 104 % of control. For the same compound, the T/C (dose: 400.0 mg/kg/injection, schedule: Q04DX003 (ip), vehicle: saline with Tween-80) was 109 % of control.
In the case of COc1ccccc1OCCOCCN(C/C=C(\C)CCC=C(C)C)C/C=C(\C)CCC=C(C)C, the T/C [9] is reported as 100 % of control, the T/C (dose: 100.0 mg/kg/injection, schedule: Q01DX009 (ip), vehicle: saline) is reported as 96 % of control and the T/C (dose: 100.0 mg/kg/injection, schedule: Q04DX003 (ip), vehicle: Klucel (hydroxypropylcellulose) (HPC)) is reported as 102 % of control. The T/C (dose: 200.0 mg/kg/injection, schedule: Q04DX003 (ip), vehicle: Klucel (hydroxypropylcellulose) (HPC)) was 98 % of control.
